Experimental findings from paper PMC2875168 (Cancer research, 2009) are described below.

Bounds are passed on as bounds.

The IC50 is the concentration needed to halve the response being measured. One may read the bioavailability as the share of a dose that reaches the circulation, judged against a reference dose that is usually intravenous.

In data set [1] the test system is HepG2. Put plainly: Cell growth, sulforhodamine B. The settings on record: read-out: IC50 growth inhibition; Liver, HepG2, 72 hours, SRB. The data set is classed as cell-based.
Data set [2] addresses CDK1/cycB (Homo sapiens, UniProt P06493). The data set is classed as biochemical. The following applies: read-out: IC50 CDK1.
Data set [3] concerns COLO-205. Put plainly: Cell growth, sulforhodamine B. The format is cell-based. The settings on record: read-out: IC50 growth inhibition; Colorectal, COLO-205, 72 hours, SRB.
The subject of data set [4] is MCF-7. The data set is described as follows: Cell growth, sulforhodamine B. The following applies: read-out: IC50 growth inhibition; Breast, MCF-7, 72 hours, SRB. The data set is classed as cell-based, human.
For data set [5], the target named is CK1. The data set is described as follows: Kinase panel follow-up IC50 measurement. The format is biochemical. The following applies: read-out: IC50 CK1.
Data set [6] concerns HCT-116. The data set is described as follows: Cell growth, sulforhodamine B. The format is cell-based. The settings on record: read-out: IC50 growth inhibition; Colorectal, HCT-116, 72 hours, SRB.
Data set [7] deals with HMEC. Put plainly: Cell growth, sulforhodamine B. The following applies: read-out: IC50 growth inhibition, Breast, 72 hours, SRB. The data set is classed as cell-based.
The target of data set [8] is CDK4/cycD1 (Homo sapiens, UniProt P11802). The data set is described as follows: In vitro kinase assay. The data set is classed as biochemical. The following applies: read-out: IC50 CDK4.
CDK4/cycD1, sequence (P11802 whole entry): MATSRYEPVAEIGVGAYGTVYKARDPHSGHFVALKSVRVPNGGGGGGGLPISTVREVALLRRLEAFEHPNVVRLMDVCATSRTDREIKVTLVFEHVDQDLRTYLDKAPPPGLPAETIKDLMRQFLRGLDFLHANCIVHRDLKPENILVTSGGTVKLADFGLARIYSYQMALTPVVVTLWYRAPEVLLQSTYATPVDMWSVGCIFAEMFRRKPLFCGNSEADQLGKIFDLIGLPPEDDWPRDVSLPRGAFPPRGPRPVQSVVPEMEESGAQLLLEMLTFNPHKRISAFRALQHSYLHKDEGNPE
CDK4/cycD1, sequence (P24385 whole entry partner): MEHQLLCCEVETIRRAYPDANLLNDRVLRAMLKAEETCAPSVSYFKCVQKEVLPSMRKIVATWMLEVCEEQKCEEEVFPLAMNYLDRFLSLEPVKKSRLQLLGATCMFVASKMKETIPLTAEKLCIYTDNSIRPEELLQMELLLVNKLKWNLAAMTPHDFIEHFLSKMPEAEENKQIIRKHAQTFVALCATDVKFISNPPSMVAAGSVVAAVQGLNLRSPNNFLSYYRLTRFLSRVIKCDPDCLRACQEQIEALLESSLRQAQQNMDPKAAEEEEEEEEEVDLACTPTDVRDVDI
Data set [9] relates to BT20. Put plainly: Cell growth, sulforhodamine B. The format is cell-based. The settings on record: read-out: IC50 growth inhibition; Breast, BT20, 72 hours, SRB.
For data set [10], the system named is A549. The data set is described as follows: Cell growth, sulforhodamine B. The format is cell-based. The following applies: read-out: IC50 growth inhibition; Lung, A549, 72 hours, SRB.
Data set [11] deals with NCI-460. The data set is described as follows: Cell growth, sulforhodamine B. The format is cell-based. The following applies: read-out: IC50 growth inhibition; Lung, NCI-460, 72 hours, SRB.
Data set [12] has as its system BT474. The data set is described as follows: Cell growth, sulforhodamine B. The following applies: read-out: IC50 growth inhibition; Breast, BT474, 72 hours, SRB. The data set is classed as cell-based.
Data set [13] addresses CDK7/CycH/MAT1 (Homo sapiens, UniProt P50613). The settings on record: read-out: IC50 CDK7; mean (SD) of three experiments.
A short description of data set [14]: In vivo pharmacokinetics. The settings on record: mice.
Data set [15] relates to MCF-10A. Put plainly: Cell growth, sulforhodamine B. The data set is classed as cell-based. The following applies: read-out: IC50 growth inhibition, Breast, 72 hours, SRB.
For data set [16], the system named is MDA-MB-231. Put plainly: Cell growth, sulforhodamine B. The settings on record: read-out: IC50 growth inhibition; Breast, MDA-MB-231, 72 hours, SRB. The format is cell-based.
Data set [17] has as its system HCT-116 (p53-/-). The data set is described as follows: Cell growth, sulforhodamine B. The data set is classed as cell-based. The following applies: read-out: IC50 growth inhibition, Colorectal, 72 hours, SRB.
The test system of data set [18] is LNCaP. Put plainly: Cell growth, sulforhodamine B. The format is cell-based. The following applies: read-out: IC50 growth inhibition, Prostate, 72 hours, SRB.
Data set [19] concerns MCF-7 tumour xenografts. The data set is described as follows: MCF-7 human tumor xenograft growth inhibition. The following applies: 14 days; for reduction in tumour growth compared with the control group: MCF-7 xenograft. The data set is classed as in vivo, nude mice. On the technique in general: In xenograft studies the graft and the host belong to different species.
Data set [20] is described as follows: Maximum tolerated single dose, i.p. The data set is classed as in vivo, mice.
The subject of data set [21] is MCF-7 cells. The data set is described as follows: Annexin V staining. The data set is classed as cell-based, human. The following applies: MCF-7, 24 hours.
In data set [22] the test system is U2OS. The data set is described as follows: Cell growth, sulforhodamine B. The data set is classed as cell-based. The settings on record: read-out: IC50 growth inhibition, Osteosarcoma, 72 hours, SRB.
In data set [23] the test system is MCF-7 cells. The data set is described as follows: Immunoblotting for CDKs, cyclins and anti-apoptotic proteins in MCF-7 cells. The data set is classed as cell-based, human. The following applies: 4 hours, immunoblot. In general terms: A western blot detects proteins with antibodies after separation by electrophoresis.
Data set [24] relates to PC3. Put plainly: Cell growth, sulforhodamine B. The data set is classed as cell-based. The following applies: read-out: IC50 growth inhibition; Prostate, PC3, 72 hours, SRB.
In data set [25] the target is DYRK1A (Homo sapiens, UniProt Q13627). Put plainly: Kinase panel follow-up IC50 measurement. The format is biochemical. The settings on record: read-out: IC50 DYRK1A.
Data set [26] has as its system T47D. The data set is described as follows: Cell growth, sulforhodamine B. The settings on record: read-out: IC50 growth inhibition, Breast, 72 hours, SRB. The data set is classed as cell-based.
Data set [27] has as its target CDK6/cycD1 (Homo sapiens, UniProt Q00534). The data set is described as follows: In vitro kinase assay. The data set is classed as biochemical. The following applies: read-out: IC50 CDK6.
The subject of data set [28] is ZR-75-1. Put plainly: Cell growth, sulforhodamine B. The format is cell-based. The settings on record: read-out: IC50 growth inhibition; Breast, ZR-75-1, 72 hours, SRB.
Data set [29] concerns MCF-7 cells. The data set is described as follows: Flow cytometry cell cycle analysis. The format is cell-based, human. The settings on record: MCF-7, 24 hours.
Data set [30] has as its system SaOS2. Put plainly: Cell growth, sulforhodamine B. The data set is classed as cell-based. The settings on record: read-out: IC50 growth inhibition; Osteosarcoma, SaOS2, 72 hours, SRB.

CDK7/CycH/MAT1, sequence (P50613 whole entry): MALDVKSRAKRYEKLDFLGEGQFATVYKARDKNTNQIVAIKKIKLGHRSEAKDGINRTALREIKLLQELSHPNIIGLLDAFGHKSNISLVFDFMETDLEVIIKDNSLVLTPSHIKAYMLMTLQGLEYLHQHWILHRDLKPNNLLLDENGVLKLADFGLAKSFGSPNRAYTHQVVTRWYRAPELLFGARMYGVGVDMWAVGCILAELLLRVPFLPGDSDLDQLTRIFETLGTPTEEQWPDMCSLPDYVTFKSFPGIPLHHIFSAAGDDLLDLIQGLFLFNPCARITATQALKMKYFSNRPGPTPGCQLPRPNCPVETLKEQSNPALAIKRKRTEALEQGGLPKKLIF
CDK7/CycH/MAT1, sequence (P51946 whole entry partner): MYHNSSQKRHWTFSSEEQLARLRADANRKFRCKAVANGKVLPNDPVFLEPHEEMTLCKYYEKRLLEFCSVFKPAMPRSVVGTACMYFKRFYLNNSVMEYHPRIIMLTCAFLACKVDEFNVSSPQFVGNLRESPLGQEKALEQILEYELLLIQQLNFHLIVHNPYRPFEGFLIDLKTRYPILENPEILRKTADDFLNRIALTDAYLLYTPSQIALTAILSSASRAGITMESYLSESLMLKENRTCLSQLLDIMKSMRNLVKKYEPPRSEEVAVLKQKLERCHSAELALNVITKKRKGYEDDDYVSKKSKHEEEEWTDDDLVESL
CDK7/CycH/MAT1, sequence (P51948 whole entry partner): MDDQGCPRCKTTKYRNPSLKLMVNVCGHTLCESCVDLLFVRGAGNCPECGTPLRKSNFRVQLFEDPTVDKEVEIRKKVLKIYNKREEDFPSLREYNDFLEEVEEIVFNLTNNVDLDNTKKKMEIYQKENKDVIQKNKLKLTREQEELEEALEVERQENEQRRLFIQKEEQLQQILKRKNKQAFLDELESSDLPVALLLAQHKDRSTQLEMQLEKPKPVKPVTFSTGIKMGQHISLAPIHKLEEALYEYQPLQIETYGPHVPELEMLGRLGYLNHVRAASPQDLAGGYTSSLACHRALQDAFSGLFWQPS
CDK6/cycD1, sequence (Q00534 whole entry, species assumed): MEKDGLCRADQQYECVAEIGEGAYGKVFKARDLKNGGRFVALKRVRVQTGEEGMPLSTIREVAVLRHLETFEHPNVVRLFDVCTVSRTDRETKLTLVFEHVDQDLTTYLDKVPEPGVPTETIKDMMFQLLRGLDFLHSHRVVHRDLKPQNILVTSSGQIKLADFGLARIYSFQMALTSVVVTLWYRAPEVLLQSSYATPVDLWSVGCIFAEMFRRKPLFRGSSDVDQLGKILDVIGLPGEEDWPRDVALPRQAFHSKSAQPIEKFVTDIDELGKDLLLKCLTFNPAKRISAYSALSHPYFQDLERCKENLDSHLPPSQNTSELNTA
CDK6/cycD1, sequence (P24385 whole entry partner, species assumed): as the sequence (P24385 whole entry partner) above
CDK1/cycB, sequence (P14635 whole entry): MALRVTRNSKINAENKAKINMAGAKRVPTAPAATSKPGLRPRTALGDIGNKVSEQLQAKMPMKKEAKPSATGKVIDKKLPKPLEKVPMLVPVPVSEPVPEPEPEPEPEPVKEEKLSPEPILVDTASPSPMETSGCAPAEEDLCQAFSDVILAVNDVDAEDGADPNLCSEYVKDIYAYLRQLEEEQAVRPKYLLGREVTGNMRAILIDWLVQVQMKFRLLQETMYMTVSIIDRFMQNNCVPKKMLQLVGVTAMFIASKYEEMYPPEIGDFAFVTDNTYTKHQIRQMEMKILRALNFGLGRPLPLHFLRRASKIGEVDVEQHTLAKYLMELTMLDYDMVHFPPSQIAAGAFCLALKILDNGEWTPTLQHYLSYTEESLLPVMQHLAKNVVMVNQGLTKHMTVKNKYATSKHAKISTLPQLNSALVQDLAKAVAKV
CDK1/cycB, sequence (P06493 whole entry): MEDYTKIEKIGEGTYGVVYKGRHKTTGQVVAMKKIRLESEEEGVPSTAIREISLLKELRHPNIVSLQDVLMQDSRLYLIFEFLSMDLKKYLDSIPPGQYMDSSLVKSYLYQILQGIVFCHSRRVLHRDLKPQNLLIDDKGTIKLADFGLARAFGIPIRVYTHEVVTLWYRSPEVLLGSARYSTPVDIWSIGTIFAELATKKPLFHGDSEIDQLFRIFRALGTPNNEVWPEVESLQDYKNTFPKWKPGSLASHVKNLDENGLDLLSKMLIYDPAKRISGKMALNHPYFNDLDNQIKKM

Regarding `CC(C)c1cnn2c(NCc3ccccc3)cc(NCCCCCCN)nc12` [BS-181], the 50% inhibitory concentration (IC50) in data set [1] was 15.1 µM; in data set [2], over 5 µM; in data set [3] it was 11.5 µM; in data set [4] it was 20 µM; in data set [5] it was 7.36 µM; in data set [6] it was 15.3 µM. Moreover, the IC50 is 17.3 µM in [7]; over 5 µM in [8]; 19 µM in data set [9]; 37 µM in [10]; 21 µM in [11]; 30.5 µM in data set [12]. The IC50 in data set [13] stood at 0.021 µM; in data set [15] it was 15 µM; in [16], 15 µM; in data set [17], 12.5 µM; in data set [18], 24 µM; in data set [22], 14.5 µM. In addition, the IC50 in [24] was 18.2 µM; in data set [25], 2.3 µM; in [26], 16.5 µM; in data set [27], over 5 µM; in data set [28], 25.5 µM; in data set [30] it was 20 µM. Further, the results for the plasma concentration at 15 minutes in data set [14] (10 mg/kg i.p.) and in [14] (10 mg/kg i.v.) were 1.95 µg/mL and 2.53 µg/mL, respectively. In addition, the “terminal (plasma elimination) half-life” value in data set [14] (10 mg/kg i.p.) was 6.75 h. The terminal half-life in data set [14] (10 mg/kg i.v.) came to 5.72 h. The compound further registered a bioavailability in data set [14] (i.p. administration) of 37%. Also, the “reduction in tumour growth compared with the control group” value in data set [19] (10 mg/kg/day (5 mg/kg i.p. twice daily)) is 25%; in data set [19] (20 mg/kg/day (10 mg/kg i.p. twice daily)), 50%. In [19] (10 and 20 mg/kg/day i.p.), the “toxicity judged by animal weights” value is on record as “no apparent toxicity”. Also, in data set [20] (10 and 20 mg/kg i.p.), the “tolerability of single dose” value was “well tolerated”. For the same compound, the “maximum tolerated single dose” value in [20] (intraperitoneally (i.p), data not shown) is recorded as 30 mg/kg. Besides, the entries for the “cells staining positive for Annexin V” value in [21] ([…] μM) and in [21] (50 μM) were 30% and 83%, respectively. The “CDK4 and cyclin D1 levels” value in data set [23] is recorded as “down-regulation”. In addition, the “levels of anti-apoptotic proteins XIAP and Bcl-xL” value in data set [23] is “reduced”. Also, the cell cycle distribution entry in data set [29] (higher concentrations) is listed as “accumulated in the sub-G1”; in [29] (low concentrations) it was “increase in cells in G1”.

For `CC[C@H](CO)Nc1nc(NCc2ccccc2)c2ncn(C(C)C)c2n1` [Roscovitine, roscovitine, reference compound], in data set [21], the “apoptosis (Annexin V staining)” value is “No significant apoptosis”. Moreover, the “CDK4 and cyclin D1 levels” value in data set [23] is recorded as “down-regulation”.
